Laboratory results from US20180235993A1 (priority 2000, published 2018).

Key:
[1] = tested on: Bovine Viral Diarrhea virus (BVDV); test: microbe, parasite or virus in culture; format: cell-based; settings: Bovine viral diarrhea virus isolates and strains, read-out: BVDV EC50
YFV-17D = test: microbe, parasite or virus in culture; format: cell-based, Yellow fever virus vaccine strain 17D; settings: Yellow fever virus, read-out: YFV EC50
[2] = tested on: Human bone marrow cells (BFU-E); test: Human bone marrow toxicity, BFU-E clonogenic assay; format: cell-based; settings: Bone marrow cell; human bone marrow colony formation, 14 to 18 days
Description: (§1) Human bone marrow cells were collected from normal healthy volunteers and the mononuclear population was separated by Ficoll-Hypaque gradient centrifugation as described previously by Sommadossi J-P, Carlisle R. “Toxicity of 3′-azido-3′-deoxythymidine and 9-(1,3-dihydroxy-2-propoxymethyl)guanine for normal human hematopoietic progenitor cells in vitro” Antimicrobial Agents and Chemotherapy 1987; 31:452-454; and Sommadossi J-P, Schinazi R F, Chu C K, Xie M-Y. “Comparison of cytotoxicity of the (−)- and (+)-enantiomer of 2′,3′-dideoxy-3′-thiacytidine in normal human bone marrow progenitor cells” Biochemical Pharmacology 1992; 44:1921-1925. The culture assays for CFU-GM and BFU-E were performed using a bilayer soft agar or methylcellulose method. Drugs were diluted in tissue culture medium and filtered. After 14 to 18 days at 37° C. in a humidified atmosphere of 5% CO2 in air, colonies of greater than 50 cells were counted using an inverted microscope. The results in Table 4 are presented as the percent inhibition of colony formation in the presence of drug compared to solvent control cultures.

[3] = tested on: Human bone marrow cells (CFU-GM); test: Human bone marrow toxicity, CFU-GM clonogenic assay; format: cell-based; settings: Homo sapiens, CFU-GM, read-out: IC50 CFU-GM
Description: as §1

[4] = Cytotoxicity assay (sulforhodamine B, CC50), Human Hepatoma; format: cell-based; settings: human, Huh7 cells (human hepatoma); Table 13; Huh7 cells
Method: Cells were seeded at a rate of between 5×10^3 and 5×10^4/well into 96-well plates in growth medium overnight at 37° C. in a humidified CO2 (5%) atmosphere. New growth medium containing serial dilutions of the drugs was then added. After incubation for 4 days, cultures were fixed in 50% TCA and stained with sulforhodamineB. The optical density was read at 550 nm. The cytotoxic concentration was expressed as the concentration required to reduce the cell number by 50% (CC50).

In the case of `CC1(O)[C@@H](O)[C@@H](CO)O[C@H]1n1cnc2c(=O)[nH]c(N)nc21` (stereo partly drawn) [β-D-2′-CH3-riboG], the EC50 [1] is reported as 2000 nM, the EC50 (YFV-17D) is reported as 1200 nM and the IC50 [2] is reported as > 100000 nM. The IC50 [3] was > 10000 nM and the EC50 at 4 days [4] was > 250000 nM.
